Reference: the supplement of paper PMC10307832

How the values were obtained:
Test in all cases: relative viability (nuclei count vs DMSO), 5 days (fraction); higher = more cells survive
NCI-H1734 = tested on: NCI-H1734
Outline: (§1)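 Lung cancer cell lines were seeded in 1536-well plates and dosed by pin tool the next day, with either a single drug or a fixed anchor-drug dose combined with five library-drug doses (not always all listed) spaced in √10 steps. Five days later, one step fixed the cells and stained their nuclei (final 0.05% Triton X-100, 1% formaldehyde, 1 ug/ml Hoechst), and nuclei were counted on 4× images. Relative viability is the nuclei count in treated wells divided by the count in vehicle wells, and each value is the median of duplicate plates.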

SW 1573 = tested on: SW 1573
Outline: as §1

BEN = tested on: BEN
Outline: as §1

HCC-44 = tested on: HCC-44
Outline: as §1

NCI-H358 = tested on: NCI-H358
Outline: as §1

NCI-H1915 = tested on: NCI-H1915
Outline: as §1

NCI-H1755 = tested on: NCI-H1755
Outline: as §1

NCI-H3122 = tested on: NCI-H3122
Outline: as §1

NCI-H2170 = tested on: NCI-H2170
Outline: as §1

LU99A = tested on: LU99A
Outline: as §1

NCI-H650 = tested on: NCI-H650
Outline: as §1

NCI-H2126 = tested on: NCI-H2126
Outline: as §1

NCI-H2023 = tested on: NCI-H2023
Outline: as §1

HOP-62 = tested on: HOP-62
Outline: as §1

EMC-BAC-2 = tested on: EMC-BAC-2
Outline: as §1

LC-2-ad = tested on: LC-2-ad
Outline: as §1

NCI-H1395 = tested on: NCI-H1395
Outline: as §1

NCI-H727 = tested on: NCI-H727
Outline: as §1

HCC-15 = tested on: HCC-15
Outline: as §1

SW 900 = tested on: SW 900
Outline: as §1

NCI-H1437 = tested on: NCI-H1437
Outline: as §1

## Cc1cn(-c2cc(NC(=O)c3ccc(C)c(Nc4nccc(-c5cccnc5)n4)c3)cc(C(F)(F)F)c2)cn1 [Nilotinib] + CC(=O)c1c(C)c2cnc(Nc3ccc(N4CCNCC4)cn3)nc2n(C2CCCC2)c1=O [Palbociclib] (partner 0.5 µM)
NCI-H1734; first compound 0.001 µM
  relative viability: 0.333
NCI-H1734; first compound 0.003162 µM
  relative viability: 0.36
NCI-H1734; first compound 0.01 µM
  relative viability: 0.372
NCI-H1734; first compound 0.03162 µM
  relative viability: 0.312
NCI-H1734; first compound 0.1 µM
  relative viability: 0.317
SW 1573; first compound 0.001 µM
  relative viability: 0.391
SW 1573; first compound 0.003162 µM
  relative viability: 0.408
SW 1573; first compound 0.01 µM
  relative viability: 0.363
SW 1573; first compound 0.03162 µM
  relative viability: 0.271
SW 1573; first compound 0.1 µM
  relative viability: 0.32
BEN; first compound 0.001 µM
  relative viability: 0.484
BEN; first compound 0.003162 µM
  relative viability: 0.489
BEN; first compound 0.01 µM
  relative viability: 0.465
BEN; first compound 0.03162 µM
  relative viability: 0.548
BEN; first compound 0.1 µM
  relative viability: 0.503
HCC-44; first compound 0.001 µM
  relative viability: 0.911
HCC-44; first compound 0.003162 µM
  relative viability: 0.933
HCC-44; first compound 0.01 µM
  relative viability: 0.927
HCC-44; first compound 0.1 µM
  relative viability: 0.931
NCI-H358; first compound 0.001 µM
  relative viability: 0.131
NCI-H358; first compound 0.003162 µM
  relative viability: 0.131
NCI-H358; first compound 0.01 µM
  relative viability: 0.148
NCI-H358; first compound 0.03162 µM
  relative viability: 0.124
NCI-H358; first compound 0.1 µM
  relative viability: 0.127
NCI-H1915; first compound 0.001 µM
  relative viability: 0.492
NCI-H1915; first compound 0.003162 µM
  relative viability: 0.535
NCI-H1915; first compound 0.01 µM
  relative viability: 0.53
NCI-H1915; first compound 0.03162 µM
  relative viability: 0.502
NCI-H1915; first compound 0.1 µM
  relative viability: 0.475
NCI-H1755; first compound 0.001 µM
  relative viability: 0.451
NCI-H1755; first compound 0.003162 µM
  relative viability: 0.453
NCI-H1755; first compound 0.01 µM
  relative viability: 0.436
NCI-H1755; first compound 0.03162 µM
  relative viability: 0.468
NCI-H1755; first compound 0.1 µM
  relative viability: 0.368
NCI-H3122; first compound 0.001 µM
  relative viability: 0.0877
NCI-H3122; first compound 0.003162 µM
  relative viability: 0.191
NCI-H3122; first compound 0.01 µM
  relative viability: 0.243
NCI-H3122; first compound 0.03162 µM
  relative viability: 0.198
NCI-H3122; first compound 0.1 µM
  relative viability: 0.175
NCI-H2170; first compound 0.001 µM
  relative viability: 0.373
NCI-H2170; first compound 0.003162 µM
  relative viability: 0.474
NCI-H2170; first compound 0.01 µM
  relative viability: 0.436
NCI-H2170; first compound 0.03162 µM
  relative viability: 0.379
NCI-H2170; first compound 0.1 µM
  relative viability: 0.44
LU99A; first compound 0.001 µM
  relative viability: 0.408
LU99A; first compound 0.003162 µM
  relative viability: 0.377
LU99A; first compound 0.01 µM
  relative viability: 0.402
LU99A; first compound 0.03162 µM
  relative viability: 0.44
LU99A; first compound 0.1 µM
  relative viability: 0.314
NCI-H650; first compound 0.001 µM
  relative viability: 0.335
NCI-H650; first compound 0.01 µM
  relative viability: 0.336
NCI-H650; first compound 0.03162 µM
  relative viability: 0.305
NCI-H650; first compound 0.1 µM
  relative viability: 0.333
NCI-H2126; first compound 0.001 µM
  relative viability: 0.337
NCI-H2126; first compound 0.003162 µM
  relative viability: 0.333
NCI-H2126; first compound 0.01 µM
  relative viability: 0.382
NCI-H2126; first compound 0.03162 µM
  relative viability: 0.321
NCI-H2126; first compound 0.1 µM
  relative viability: 0.346
NCI-H2023; first compound 0.001 µM
  relative viability: 0.395
NCI-H2023; first compound 0.003162 µM
  relative viability: 0.401
NCI-H2023; first compound 0.01 µM
  relative viability: 0.457
NCI-H2023; first compound 0.03162 µM
  relative viability: 0.333
NCI-H2023; first compound 0.1 µM
  relative viability: 0.419
HOP-62; first compound 0.003162 µM
  relative viability: 0.425
HOP-62; first compound 0.01 µM
  relative viability: 0.439
EMC-BAC-2; first compound 0.001 µM
  relative viability: 0.477
EMC-BAC-2; first compound 0.003162 µM
  relative viability: 0.47
EMC-BAC-2; first compound 0.01 µM
  relative viability: 0.481
EMC-BAC-2; first compound 0.03162 µM
  relative viability: 0.487
EMC-BAC-2; first compound 0.1 µM
  relative viability: 0.526
LC-2-ad; first compound 0.001 µM
  relative viability: 0.535
LC-2-ad; first compound 0.003162 µM
  relative viability: 0.605
LC-2-ad; first compound 0.01 µM
  relative viability: 0.561
LC-2-ad; first compound 0.03162 µM
  relative viability: 0.466
LC-2-ad; first compound 0.1 µM
  relative viability: 0.502
NCI-H1395; first compound 0.001 µM
  relative viability: 0.636
NCI-H1395; first compound 0.01 µM
  relative viability: 0.692
NCI-H1395; first compound 0.03162 µM
  relative viability: 0.612
NCI-H1395; first compound 0.1 µM
  relative viability: 0.599
NCI-H727; first compound 0.001 µM
  relative viability: 0.667
NCI-H727; first compound 0.003162 µM
  relative viability: 0.69
NCI-H727; first compound 0.01 µM
  relative viability: 0.71
NCI-H727; first compound 0.03162 µM
  relative viability: 0.593
NCI-H727; first compound 0.1 µM
  relative viability: 0.633
HCC-15; first compound 0.001 µM
  relative viability: 0.688
HCC-15; first compound 0.003162 µM
  relative viability: 0.882
HCC-15; first compound 0.01 µM
  relative viability: 0.87
HCC-15; first compound 0.03162 µM
  relative viability: 0.578
HCC-15; first compound 0.1 µM
  relative viability: 0.476
SW 900; first compound 0.003162 µM
  relative viability: 0.47
SW 900; first compound 0.01 µM
  relative viability: 0.524
SW 900; first compound 0.03162 µM
  relative viability: 0.455
SW 900; first compound 0.1 µM
  relative viability: 0.476
NCI-H1437; first compound 0.001 µM
  relative viability: 0.28
NCI-H1437; first compound 0.003162 µM
  relative viability: 0.304
NCI-H1437; first compound 0.01 µM
  relative viability: 0.308
NCI-H1437; first compound 0.03162 µM
  relative viability: 0.276
NCI-H1437; first compound 0.1 µM
  relative viability: 0.32
